ChEMBL document CHEMBL1201862, “PubChem BioAssay data set” (2004)
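Results reflect a 48-hour exposure of cells in 96-well plates to compound at five concentrations. At the GI50, growth is halved.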 The source made the active and inactive calls. Rule as the data show it: active = GI50 up to about 1.1 µM and inactive = higher.

Legend:
Assay in all cases: NCI-60 cell line screen, 48 h
786-0 = test system: 786-0
A498 = test system: A498
A549 = test system: A549
ACHN = test system: ACHN
CCRF-CEM = test system: CCRF-CEM
COLO 205 = test system: COLO 205
DLD-1 = test system: DLD-1
DMS-114 = test system: DMS-114
DMS-273 = test system: DMS-273
EKVX = test system: EKVX
HCC 2998 = test system: HCC 2998
HCT-116 = test system: HCT-116
HL-60 = test system: HL-60
HOP-18 = test system: HOP-18
HOP-62 = test system: HOP-62
HOP-92 = test system: HOP-92
HT-29 = test system: HT-29
IGROV-1 = test system: IGROV-1
K562 = test system: K562
KM-20L2 = test system: KM-20L2
KM12 = test system: KM12
LOX IMVI = test system: LOX IMVI
LXFL 529 = test system: LXFL 529
M19-MEL = test system: M19-MEL
MOLT-4 = test system: MOLT-4
Malme-3M = test system: Malme-3M
NCI-H23 = test system: NCI-H23
NCI-H460 = test system: NCI-H460
NCI-H522 = test system: NCI-H522
OVCAR-3 = test system: OVCAR-3
OVCAR-5 = test system: OVCAR-5
OVCAR-8 = test system: OVCAR-8
RPMI-8226 = test system: RPMI-8226
RXF 393 = test system: RXF 393
SF-268 = test system: SF-268
SF-295 = test system: SF-295
SF-539 = test system: SF-539
SK-MEL-28 = test system: SK-MEL-28
SK-MEL-2 = test system: SK-MEL-2
SK-OV-3 = test system: SK-OV-3
SNB-19 = test system: SNB-19
SNB-75 = test system: SNB-75
SNB-78 = test system: SNB-78
SW-620 = test system: SW-620
TK-10 = test system: TK-10
U-251 = test system: U-251
UACC-257 = test system: UACC-257
UO-31 = test system: UO-31

Measured: GI50

Cc1ccc2c(c1)C1C(CO2)C(c2ccccc2)=NN1c1ccccc1 (stereo not drawn)
inactive: 786-0 > 100 µM | A498 > 100 µM | A549 > 100 µM | ACHN > 100 µM | CCRF-CEM > 100 µM | COLO 205 > 100 µM | DLD-1 > 100 µM | DMS-114 > 100 µM | DMS-273 > 100 µM | EKVX > 100 µM | HCC 2998 95.5 µM | HCT-116 > 100 µM | HL-60 72.3 µM | HOP-18 > 100 µM | HOP-62 > 100 µM | HOP-92 80.5 µM | HT-29 69.5 µM | IGROV-1 > 100 µM | K562 > 100 µM | KM-20L2 > 100 µM | KM12 > 100 µM | LOX IMVI > 100 µM | LXFL 529 > 100 µM | M19-MEL > 100 µM | MOLT-4 96.2 µM | Malme-3M > 100 µM | NCI-H23 > 100 µM | NCI-H460 > 100 µM | NCI-H522 > 100 µM | OVCAR-3 > 100 µM | OVCAR-5 > 100 µM | OVCAR-8 > 100 µM | RPMI-8226 45.7 µM | RXF 393 > 100 µM | SF-268 > 100 µM | SF-295 > 100 µM | SF-539 > 100 µM | SK-MEL-28 > 100 µM | SK-MEL-2 > 100 µM | SK-OV-3 > 100 µM | SNB-19 > 100 µM | SNB-75 > 100 µM | SNB-78 > 100 µM | SW-620 > 100 µM | TK-10 > 100 µM | U-251 > 100 µM | UACC-257 > 100 µM | UO-31 > 100 µM
